# According to PubChem BioAssay AID2060502 (Molecular Pharmacology Branch, DTP, NCI, 2025):
# System: 885724-159-R-J1-PDC complex spheroid viability
# Assay: Anticancer human tumor 885724-159-R-J1-PDC patient-derived pancreatic adenocarcinoma cell line growth inhibition [GQUAD]
# Conditions: for IC50: curve of first compound; for viability, T/C: stronger effect = lower value
# Method in brief: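 Tumor cells were grown as complex spheroids with HUVEC endothelial cells and mesenchymal stem cells as stroma. G-quadruplex stabilizers were combined with targeted agents over half-log dilutions from near the clinical Cmax, or from 10 microM.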
# [1] = second compound 0.0316 µM, first compound 0.0316 µM
# [2] = second compound 0.0316 µM, first compound 0.1 µM
# [3] = second compound 0.0316 µM, first compound 0.316 µM
# [4] = second compound 0.0316 µM, first compound 1 µM
# [5] = second compound 0.0316 µM, first compound 3.16 µM
# [6] = second compound 0.0316 µM, first compound 10 µM
# [7] = second compound 0.1 µM, first compound 0.0316 µM
# [8] = second compound 0.1 µM, first compound 0.1 µM
# [9] = second compound 0.1 µM, first compound 0.316 µM
# [10] = second compound 0.1 µM, first compound 1 µM
# [11] = second compound 0.1 µM, first compound 3.16 µM
# [12] = second compound 0.1 µM, first compound 10 µM
# [13] = second compound 0.316 µM, first compound 0.0316 µM
# [14] = second compound 0.316 µM, first compound 0.1 µM
# [15] = second compound 0.316 µM, first compound 0.316 µM
# [16] = second compound 0.316 µM, first compound 1 µM
# [17] = second compound 0.316 µM, first compound 3.16 µM
# [18] = second compound 0.316 µM, first compound 10 µM
# [19] = second compound 1 µM, first compound 0.0316 µM
# [20] = second compound 1 µM, first compound 0.1 µM
# [21] = second compound 1 µM, first compound 0.316 µM
# [22] = second compound 1 µM, first compound 1 µM
# [23] = second compound 1 µM, first compound 3.16 µM
# [24] = second compound 1 µM, first compound 10 µM
# [25] = second compound 3.16 µM, first compound 0.0316 µM
# [26] = second compound 3.16 µM, first compound 0.1 µM
# [27] = second compound 3.16 µM, first compound 0.316 µM
# [28] = second compound 3.16 µM, first compound 1 µM
# [29] = second compound 3.16 µM, first compound 3.16 µM
# [30] = second compound 3.16 µM, first compound 10 µM
# [31] = second compound 10 µM, first compound 0.0316 µM
# [32] = second compound 10 µM, first compound 0.1 µM
# [33] = second compound 10 µM, first compound 0.316 µM
# [34] = second compound 10 µM, first compound 1 µM
# [35] = second compound 10 µM, first compound 3.16 µM
# [36] = second compound 10 µM, first compound 10 µM
# 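Note: spheroids exposed to agents for seven days before readout.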
# 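Throughout, for viability, T/C: percent of vehicle control viability where 100% = DMSO wells.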
compound,measurement,setting,value
CC1COCCN1c1cc(C2(O)CC3CCC(C2)O3)c2cnn(-c3ccn[nH]3)c2n1 (stereo unspecified) + Cc1cnc(CNC(=O)c2c(=O)c3ccc(N4CCCN(C)CC4)nc3n3c2sc2ccccc23)cn1,IC50,second compound 0.0316 µM,1.12 µM
same,IC50,second compound 0.1 µM,1.14 µM
same,IC50,second compound 0.316 µM,0.986 µM
same,IC50,second compound 1 µM,0.293 µM
same,IC50,second compound 3.16 µM,0.184 µM
same,IC50,second compound 10 µM,0.196 µM
same,"viability, T/C",[1],96.9%
same,"viability, T/C",[2],71%
same,"viability, T/C",[3],63.3%
same,"viability, T/C",[4],52.9%
same,"viability, T/C",[5],42.7%
same,"viability, T/C",[6],30.8%
same,"viability, T/C",[7],91.1%
same,"viability, T/C",[8],83.7%
same,"viability, T/C",[9],68.3%
same,"viability, T/C",[10],51.4%
same,"viability, T/C",[11],37.8%
same,"viability, T/C",[12],27.9%
same,"viability, T/C",[13],83.8%
same,"viability, T/C",[14],81.5%
same,"viability, T/C",[15],68.5%
same,"viability, T/C",[16],48%
same,"viability, T/C",[17],35%
same,"viability, T/C",[18],22.4%
same,"viability, T/C",[19],79.7%
same,"viability, T/C",[20],59.3%
same,"viability, T/C",[21],48.7%
same,"viability, T/C",[22],39.1%
same,"viability, T/C",[23],27.5%
same,"viability, T/C",[24],17.9%
same,"viability, T/C",[25],72.1%
same,"viability, T/C",[26],56.5%
same,"viability, T/C",[27],43.8%
same,"viability, T/C",[28],32.4%
same,"viability, T/C",[29],19%
same,"viability, T/C",[30],13.8%
same,"viability, T/C",[31],61.5%
same,"viability, T/C",[32],59.2%
same,"viability, T/C",[33],43.4%
same,"viability, T/C",[34],30.1%
same,"viability, T/C",[35],19.1%
same,"viability, T/C",[36],12.4%
C=CCn1c(=O)c2cnc(Nc3ccc(N4CCN(C)CC4)cc3)nc2n1-c1cccc(C(C)(C)O)n1 + Cc1cnc(CNC(=O)c2c(=O)c3ccc(N4CCCN(C)CC4)nc3n3c2sc2ccccc23)cn1,IC50,second compound 0.0316 µM,> 10 µM
same,IC50,second compound 0.1 µM,> 10 µM
same,IC50,second compound 0.316 µM,> 10 µM
same,IC50,second compound 1 µM,> 10 µM
same,IC50,second compound 3.16 µM,> 10 µM
same,IC50,second compound 10 µM,> 10 µM
same,"viability, T/C",[1],105%
same,"viability, T/C",[2],106%
same,"viability, T/C",[3],100%
same,"viability, T/C",[4],97.1%
same,"viability, T/C",[5],78.4%
same,"viability, T/C",[6],91.5%
same,"viability, T/C",[7],109%
same,"viability, T/C",[8],132%
same,"viability, T/C",[9],99.7%
same,"viability, T/C",[10],93.9%
same,"viability, T/C",[11],85.9%
same,"viability, T/C",[12],83.3%
same,"viability, T/C",[13],106%
same,"viability, T/C",[14],102%
same,"viability, T/C",[15],100%
same,"viability, T/C",[16],91.1%
same,"viability, T/C",[17],89.9%
same,"viability, T/C",[18],90%
same,"viability, T/C",[19],100%
same,"viability, T/C",[20],78.2%
same,"viability, T/C",[21],82.8%
same,"viability, T/C",[22],75.3%
same,"viability, T/C",[23],79.2%
same,"viability, T/C",[24],96.8%
same,"viability, T/C",[25],73.1%
same,"viability, T/C",[26],65.4%
same,"viability, T/C",[27],69.8%
same,"viability, T/C",[28],67.8%
same,"viability, T/C",[29],71.5%
same,"viability, T/C",[30],69.2%
same,"viability, T/C",[31],58.9%
same,"viability, T/C",[32],70.4%
same,"viability, T/C",[33],56.4%
same,"viability, T/C",[34],58.3%
same,"viability, T/C",[35],69.8%
same,"viability, T/C",[36],62%
CC1COCCN1c1cc(-c2ccnn2C)c2ccnc(-c3ccn[nH]3)c2n1 (stereo unspecified) + Cc1[nH]c2ccc(F)cc2c1-c1nc2c3cccnc3c3ncccc3c2[nH]1,IC50,second compound 0.0316 µM,> 10 µM
same,IC50,second compound 0.1 µM,> 10 µM
same,IC50,second compound 0.316 µM,8.46 µM
same,IC50,second compound 1 µM,2.85 µM
same,IC50,second compound 3.16 µM,0.0524 µM
same,IC50,second compound 10 µM,4.98 µM
same,"viability, T/C",[1],104%
same,"viability, T/C",[2],87.3%
same,"viability, T/C",[3],87.2%
same,"viability, T/C",[4],76.9%
same,"viability, T/C",[5],53.3%
same,"viability, T/C",[6],53.8%
same,"viability, T/C",[7],99.7%
same,"viability, T/C",[8],104%
same,"viability, T/C",[9],89.8%
same,"viability, T/C",[10],73.5%
same,"viability, T/C",[11],62.5%
same,"viability, T/C",[12],51.8%
same,"viability, T/C",[13],98.7%
same,"viability, T/C",[14],84.7%
same,"viability, T/C",[15],68.7%
same,"viability, T/C",[16],61.1%
same,"viability, T/C",[17],56.6%
same,"viability, T/C",[18],48%
same,"viability, T/C",[19],80.4%
same,"viability, T/C",[20],68.9%
same,"viability, T/C",[21],63.8%
same,"viability, T/C",[22],54.5%
same,"viability, T/C",[23],51%
same,"viability, T/C",[24],43.5%
same,"viability, T/C",[25],54.8%
same,"viability, T/C",[26],39.6%
same,"viability, T/C",[27],47.9%
same,"viability, T/C",[28],28.2%
same,"viability, T/C",[29],24.8%
same,"viability, T/C",[30],30.6%
same,"viability, T/C",[31],66.3%
same,"viability, T/C",[32],66%
same,"viability, T/C",[33],62.9%
same,"viability, T/C",[34],52.9%
same,"viability, T/C",[35],51.8%
same,"viability, T/C",[36],47.9%
